This note sets out measurements from US12252524B2, “GIP/GLP1 co-agonist compounds” (Eli Lilly and Company, priority 2018, dated 2025).

One experiment concerns the target human GLP-1R (Homo sapiens, UniProt P43220). Briefly: [125I]-GLP-1 binding (SPA), human GLP-1 receptor. Details: expressed in transfected cells; crude membranes. The note with it: read-out: hGLP1R Ki, (nM) (SEM, n). Summed up: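 Ki values are geometric means with SEM over independent replicates on different days, derived from IC50s fitted by four-parameter nonlinear regression. The assay used crude cell membranes in HEPES buffer, pH 7.4, containing CaCl2, MgCl2, bacitracin and TWEEN-20.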

In another experiment the target is T1, human Gcg receptor (Homo sapiens, UniProt P47871).
T1 construct: expressed in transfected cells; crude membranes
As to the kind of experiment: [125I]-Glucagon binding (SPA), human Gcg receptor. The note with it: read-out: hGLcgR Ki, nM (SEM, n). Summed up: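 Scintillation counts are taken after membranes and WGA beads incubate and settle for 12 hours at room temperature. Buffer is 25 mM HEPES, pH 7.4, with CaCl2, MgCl2, bacitracin and Tween-20. Ki values, from four-parameter IC50 fits, are geometric means over independent days.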

For the next experiment, the target named is T2, human GIP receptor (Homo sapiens, UniProt P48546).
T2 construct: expressed in transfected cells; crude membranes
T2 sequence (P48546 22-466): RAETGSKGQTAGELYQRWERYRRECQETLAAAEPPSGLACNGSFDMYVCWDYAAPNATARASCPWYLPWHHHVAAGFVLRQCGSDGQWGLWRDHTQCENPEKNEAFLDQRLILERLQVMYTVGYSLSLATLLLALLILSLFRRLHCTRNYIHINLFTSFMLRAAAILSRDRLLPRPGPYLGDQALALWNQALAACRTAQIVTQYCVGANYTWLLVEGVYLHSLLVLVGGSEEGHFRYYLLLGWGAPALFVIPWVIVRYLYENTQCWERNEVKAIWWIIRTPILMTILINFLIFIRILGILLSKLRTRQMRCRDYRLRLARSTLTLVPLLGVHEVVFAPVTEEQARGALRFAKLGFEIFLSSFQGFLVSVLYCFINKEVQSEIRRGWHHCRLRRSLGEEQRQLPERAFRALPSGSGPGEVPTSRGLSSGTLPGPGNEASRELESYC
As to the kind of experiment: [125I]-GIP binding (SPA), human GIP receptor. The settings on record: read-out: hGIPR Ki, nM (SEM, n).

In experiment [1] the target is human GLP-1 receptor (GLP-1R) (Homo sapiens, UniProt P43220). As to the kind of experiment: cAMP pharmacological functional assay in presence of casein, hGLP-1R. Format: cell-based. The note with it: HEK293 cells expressing hGLP-1R, 0.1% Casein, geometric mean; read-out: hGLP1R cAMP Rel EC50 nM (SEM, n).
The target in experiment [2] is T3, gastric inhibitory peptide receptor (GIPR) (Homo sapiens, UniProt P48546).
T3 sequence (P48546 22-466): T2 sequence (P48546 22-466)
As to the kind of experiment: cAMP pharmacological functional assay in presence of casein, hGIPR. The note with it: HEK293 cells expressing hGIPR, 0.1% Casein, geometric mean; read-out: hGIPR cAMP Rel EC50 nM (SEM, n). Format: cell-based.

Numbered stars: 1 amine (or outer) side, 2 acyl side, 3 side chain; on linkers, the order of the positions; unused ones are H or OH. Square brackets hold non-standard residues; d marks the D form. Side chains are listed from the residue outwards. Peptide text beside a SMILES is read from it. * marks the point of attachment. C20 diacid = O=C(O)CCCCCCCCCCCCCCCCCCC(=O)*; γGlu = O=C(O)[C@H](CCC(=O)[*:2])N[*:1]; αMeL = CC(C)C[C@](C)(N)C(=O)O; αMeK = C[C@](N)(CCCCN)C(=O)O; AEEA = NCCOCCOCC(=O)O; Aib = CC(C)(N)C(=O)O Bounds are passed on as bounds.

T1 sequence (P47871 26-477): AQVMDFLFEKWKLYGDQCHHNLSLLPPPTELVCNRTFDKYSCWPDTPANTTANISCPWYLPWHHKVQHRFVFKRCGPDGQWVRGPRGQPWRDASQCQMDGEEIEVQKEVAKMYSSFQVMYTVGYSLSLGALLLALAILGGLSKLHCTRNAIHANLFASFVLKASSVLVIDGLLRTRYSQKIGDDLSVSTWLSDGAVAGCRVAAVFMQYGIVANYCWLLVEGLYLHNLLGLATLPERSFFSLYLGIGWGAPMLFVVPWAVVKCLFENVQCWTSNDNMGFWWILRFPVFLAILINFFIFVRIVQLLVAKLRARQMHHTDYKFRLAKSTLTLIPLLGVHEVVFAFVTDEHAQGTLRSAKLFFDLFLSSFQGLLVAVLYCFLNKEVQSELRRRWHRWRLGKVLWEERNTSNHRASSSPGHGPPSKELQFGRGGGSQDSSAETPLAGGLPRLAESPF
Sequence of human GLP-1R (P43220 24-463): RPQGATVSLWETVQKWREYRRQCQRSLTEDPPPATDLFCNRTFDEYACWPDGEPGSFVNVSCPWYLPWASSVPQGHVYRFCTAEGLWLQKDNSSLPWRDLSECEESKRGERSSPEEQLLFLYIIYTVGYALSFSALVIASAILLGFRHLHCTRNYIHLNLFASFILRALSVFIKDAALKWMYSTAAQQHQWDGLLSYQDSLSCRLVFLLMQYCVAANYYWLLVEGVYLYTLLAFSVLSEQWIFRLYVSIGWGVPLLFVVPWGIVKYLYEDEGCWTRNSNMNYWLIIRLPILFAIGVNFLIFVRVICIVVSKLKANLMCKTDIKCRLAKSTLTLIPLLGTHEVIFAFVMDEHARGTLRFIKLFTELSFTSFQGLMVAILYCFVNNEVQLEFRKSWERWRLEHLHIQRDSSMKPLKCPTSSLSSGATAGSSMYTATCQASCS
Sequence of human GLP-1 receptor (GLP-1R) (P43220 24-463): as above

For `CC[C@H](C)[C@H](NC(=O)[C@H](CC(C)C)NC(=O)[C@H](Cc1ccc(O)cc1)NC(=O)[C@H](CCC(=O)O)NC(=O)[C@@H](NC(=O)[C@H](Cc1ccccc1)NC(=O)[C@H](C)NC(=O)C(C)(C)NC(=O)[C@H](CCC(N)=O)NC(=O)[C@H](C)NC(=O)[C@H](CCCCNC(=O)COCCOCCNC(=O)COCCOCCNC(=O)CC[C@H](NC(=O)CCCCCCCCCCCCCCCCCCC(=O)O)C(=O)O)NC(=O)[C@H](CCCCN)NC(=O)[C@H](CC(=O)O)NC(=O)[C@H](CC(C)C)NC(=O)[C@H](CC(C)C)NC(=O)[C@@H](NC(=O)[C@H](CO)NC(=O)[C@H](Cc1ccc(O)cc1)NC(=O)[C@H](CC(=O)O)NC(=O)[C@H](CO)NC(=O)[C@@H](NC(=O)[C@H](Cc1ccccc1)NC(=O)[C@@H](NC(=O)CNC(=O)[C@H](CCC(=O)O)NC(=O)C(C)(C)NC(=O)[C@H](N)Cc1ccc(O)cc1)[C@@H](C)O)[C@@H](C)O)[C@@H](C)CC)[C@@H](C)CC)C(=O)N[C@@H](CCC(=O)O)C(=O)NCC(=O)NCC(=O)N1CCC[C@H]1C(=O)N[C@@H](CO)C(=O)N[C@@H](CO)C(=O)NCC(=O)N[C@@H](C)C(=O)N1CCC[C@H]1C(=O)N1CCC[C@H]1C(=O)N1CCC[C@H]1C(=O)N[C@@H](CO)C(N)=O` [Example 78], the inhibitory constant (Ki) at human GLP-1R was 3.94 nM; at human Gcg receptor it was 215 nM; on human GIP receptor it was 0.163 nM. In addition, the values for the EC50 in experiment [1] and in experiment [2] were 0.544 nM and 0.532 nM, respectively.
In the same order, the values of `CC[C@H](C)[C@H](NC(=O)[C@H](CC(C)C)NC(=O)[C@H](Cc1ccc(O)cc1)NC(=O)[C@H](CCC(=O)O)NC(=O)[C@@H](NC(=O)[C@H](Cc1ccccc1)NC(=O)[C@H](C)NC(=O)C(C)(C)NC(=O)[C@H](CCC(N)=O)NC(=O)[C@H](C)NC(=O)[C@H](CCCCNC(=O)COCCOCCNC(=O)COCCOCCNC(=O)CC[C@H](NC(=O)CCCCCCCCCCCCCCCCCCC(=O)O)C(=O)O)NC(=O)[C@H](CCCCN)NC(=O)[C@H](CC(=O)O)NC(=O)[C@H](CC(C)C)NC(=O)[C@H](CC(C)C)NC(=O)[C@@H](NC(=O)[C@H](CO)NC(=O)[C@H](C)NC(=O)[C@H](CC(=O)O)NC(=O)[C@H](CO)NC(=O)[C@@H](NC(=O)[C@H](Cc1ccccc1)NC(=O)[C@@H](NC(=O)CNC(=O)[C@H](CCC(=O)O)NC(=O)C(C)(C)NC(=O)[C@@H](N)Cc1ccc(O)cc1)[C@@H](C)O)[C@@H](C)O)[C@@H](C)CC)[C@@H](C)CC)C(=O)N[C@@H](CCC(=O)O)C(=O)NCC(=O)NCC(=O)N1CCC[C@H]1C(=O)N[C@@H](CO)C(=O)N[C@@H](CO)C(=O)NCC(=O)N[C@@H](C)C(=O)N1CCC[C@H]1C(=O)N1CCC[C@H]1C(=O)N1CCC[C@H]1C(=O)N[C@@H](CO)C(N)=O` [Example 85] (H-Y[Aib]EGTFTSDASILLDKK([AEEA-AEEA-γGlu-C20 diacid])AQ[Aib]AFIEYLIEGGPSSGAPPPS-NH2) are 1.87 nM, greater than 894 nM, 0.621 nM, 0.0518 nM and 1.67 nM.
The matching figures for `CC[C@H](C)[C@H](NC(=O)[C@H](Cc1ccccc1)NC(=O)[C@H](C)NC(=O)[C@](C)(CCCCN)NC(=O)[C@H](CCC(N)=O)NC(=O)[C@H](C)NC(=O)[C@H](CCCCNC(=O)COCCOCCNC(=O)COCCOCCNC(=O)CC[C@H](NC(=O)CCCCCCCCCCCCCCCCCCC(=O)O)C(=O)O)NC(=O)[C@H](CCC(=O)O)NC(=O)[C@H](CC(=O)O)NC(=O)[C@H](CC(C)C)NC(=O)[C@](C)(CC(C)C)NC(=O)[C@@H](NC(=O)[C@H](CO)NC(=O)[C@H](Cc1ccc(O)cc1)NC(=O)[C@H](CC(=O)O)NC(=O)[C@H](CO)NC(=O)[C@@H](NC(=O)[C@H](Cc1ccccc1)NC(=O)[C@@H](NC(=O)CNC(=O)[C@H](CCC(=O)O)NC(=O)C(C)(C)NC(=O)[C@@H](N)Cc1ccc(O)cc1)[C@@H](C)O)[C@@H](C)O)[C@@H](C)CC)C(=O)N[C@@H](CCC(=O)O)C(=O)N[C@@H](Cc1ccc(O)cc1)C(=O)N[C@@H](CC(C)C)C(=O)N[C@@H](CC(C)C)C(=O)N[C@@H](CCC(=O)O)C(=O)NCC(=O)NCC(=O)N1CCC[C@H]1C(=O)N[C@@H](CO)C(=O)N[C@@H](CO)C(=O)NCC(=O)N[C@@H](C)C(=O)N1CCC[C@H]1C(=O)N1CCC[C@H]1C(=O)N1CCC[C@H]1C(=O)N[C@@H](CO)C(N)=O` [Example 21] (H-Y[Aib]EGTFTSDYSI[αMeL]LDEK([AEEA-AEEA-γGlu-C20 diacid])AQ[αMeK]AFIEYLLEGGPSSGAPPPS-NH2): 14.5 nM, 149 nM, 0.529 nM, 0.16 nM and 0.0748 nM.
Take `CC[C@H](C)[C@H](NC(=O)[C@H](CCCCN)NC(=O)[C@H](CC(=O)O)NC(=O)[C@H](CC(C)C)NC(=O)[C@H](CC(C)C)NC(=O)[C@@H](NC(=O)[C@H](CO)NC(=O)[C@H](Cc1ccc(O)cc1)NC(=O)[C@H](CC(=O)O)NC(=O)[C@H](CO)NC(=O)[C@@H](NC(=O)[C@H](Cc1ccccc1)NC(=O)[C@@H](NC(=O)CNC(=O)[C@H](CCC(=O)O)NC(=O)C(C)(C)NC(=O)[C@@H](N)Cc1ccc(O)cc1)[C@@H](C)O)[C@@H](C)O)[C@@H](C)CC)C(=O)N[C@@H](C)C(=O)N[C@@H](CCC(N)=O)C(=O)NC(C)(C)C(=O)N[C@@H](C)C(=O)N[C@@H](Cc1ccccc1)C(=O)N[C@H](C(=O)N[C@@H](CCC(=O)O)C(=O)N[C@@H](Cc1ccc(O)cc1)C(=O)N[C@@H](CC(C)C)C(=O)N[C@H](C(=O)N[C@@H](CCC(=O)O)C(=O)NCC(=O)NCC(=O)N1CCC[C@H]1C(=O)N[C@@H](CO)C(=O)N[C@@H](CO)C(=O)NCC(=O)N[C@@H](C)C(=O)N[C@@H](CCCCNC(=O)COCCOCCNC(=O)COCCOCCNC(=O)CC[C@H](NC(=O)CCCCCCCCCCCCCCCCCCC(=O)O)C(=O)O)C(=O)N1CCC[C@H]1C(=O)N1CCC[C@H]1C(=O)N[C@@H](CO)C(N)=O)[C@@H](C)CC)[C@@H](C)CC` [Example 45] (H-Y[Aib]EGTFTSDYSILLDKIAQ[Aib]AFIEYLIEGGPSSGAK([AEEA-AEEA-γGlu-C20 diacid])PPS-NH2): the Ki on human GLP-1R was determined as 5.65 nM; on human Gcg receptor it was 11.1 nM; on human GIP receptor it was 0.0463 nM. The EC50 worked out at 1.03 nM in experiment [1] and 0.106 nM in experiment [2].
In the same order, the values of `CC[C@H](C)[C@H](NC(=O)[C@H](CC(C)C)NC(=O)[C@H](Cc1ccc(O)cc1)NC(=O)[C@H](CCC(=O)O)NC(=O)[C@@H](NC(=O)[C@H](Cc1ccccc1)NC(=O)[C@H](C)NC(=O)C(C)(C)NC(=O)[C@H](CCC(N)=O)NC(=O)[C@H](C)NC(=O)[C@H](CCCCNC(=O)COCCOCCNC(=O)COCCOCCNC(=O)CC[C@H](NC(=O)CCCCCCCCCCCCCCCCCCC(=O)O)C(=O)O)NC(=O)[C@H](CCC(=O)O)NC(=O)[C@H](CC(=O)O)NC(=O)[C@H](CC(C)C)NC(=O)[C@](C)(CC(C)C)NC(=O)[C@@H](NC(=O)[C@H](CO)NC(=O)[C@H](Cc1ccc(O)cc1)NC(=O)[C@H](CC(=O)O)NC(=O)[C@H](CO)NC(=O)[C@@H](NC(=O)[C@H](Cc1ccccc1)NC(=O)[C@@H](NC(=O)CNC(=O)[C@H](CCC(=O)O)NC(=O)C(C)(C)NC(=O)[C@@H](N)Cc1ccc(O)cc1)[C@@H](C)O)[C@@H](C)O)[C@@H](C)CC)[C@@H](C)CC)C(=O)N[C@@H](CCC(=O)O)C(=O)NCC(=O)NCC(=O)N1CCC[C@H]1C(=O)N[C@@H](CO)C(=O)N[C@@H](CO)C(=O)NCC(=O)N[C@@H](C)C(=O)N1CCC[C@H]1C(=O)N1CCC[C@H]1C(=O)N1CCC[C@H]1C(=O)N[C@@H](CO)C(N)=O` [Example 59] (H-Y[Aib]EGTFTSDYSI[αMeL]LDEK([AEEA-AEEA-γGlu-C20 diacid])AQ[Aib]AFIEYLIEGGPSSGAPPPS-NH2) are 8.2 nM, 292 nM, 0.136 nM, 0.084 nM and 0.0922 nM.

One may read the Ki as a dissociation constant, usually derived from enzyme kinetics or from competition with a known ligand. Usually EC50 stands for the midpoint of the concentration-response curve.
